Measurements published in paper PMC9571594, “Development of Semisynthetic Apoptosis-Inducing Agents Based on Natural Phenolic Acids Scaffold: Design, Synthesis and In-Vitro Biological Evaluation” (Molecules, 2022).
≈ marks a conversion by molar mass, not a printed value. Where two headings read alike, the source gives them in different places.

Columns and labels:
[1] = tested on: Caco-2 cells; experiment: Annexin V-FITC/PI apoptosis assay by flow cytometry; assay type: cell-based; parameters: key: % of cells; settings: annexin-V FITC/PI staining, 24h
Procedure: In order to determine the percentage of viable, apoptotic and necrotic cells after treatment with our compounds, double-staining with fluorescein isothiocyanate (FITC) and PI was performed. Annexin V-FITC Apoptosis Detection Kit (BioVision, CA, USA) was used. Briefly, cultured Caco-2 were treated with the tested compounds or DMSO for 24h. Cells were then collected by centrifugation at 2000 rpm for 5 min, and the pellet was washed with PBS then centrifuged again at 2000 rpm for 5 min then resuspended in 500μL of the kit’s binding buffer before adding the Annexin V-FITC and PI. The cells were then incubated at room temperature in the dark for 5 min. Annexin V-FITC binding was measured using FACS Calibur flow cytometer (BD biosciences, USA) (Ex = 488 nm, Em = 533 nm, FL1 filter for annexin and FL2 filter for PI).

[2] = tested on: A549 cells; experiment: MTT cell viability assay, A549; assay type: cell-based, human
Procedure: (§1) MCF-7 cells (Human breast adenocarcinoma), HepG2 (human hepatocellular carcinoma), A549 (human lung adenocarcinoma), Caco-2 (colon carcinoma), PANC-1 (human pancreatic cancer), and Vero cells (derived from normal kidney cells) were supplied by (Holding Company for Biological Products and Vaccines VACSERA; Giza, Egypt). The cells were cultured in PRMI 1640 medium (Lonza, Switzerland) supplemented with 10% fetal bovine serum (Gibco), 1% penicillin and 1% streptomycin (Sigma Aldrich, Saint Louis, MO, USA) at 37 °C under an atmosphere of 5% CO2 and 95% air.
(§2) The effect of parent compounds and their derivatives were assessed by (3-(4,5-dimethylthiazol-2-yl)-2,5diphenyl-tetrazolium bromide) MTT assay. […] After a merged sheet of cells developed, the growth media was decanted from the 96-well microtiter and refilled with different concentrations of compounds (µg/mL), and the plate was incubated at 37 °C for 48 h to minimize exposure to the dissolving agent (Supporting Information).
(§3) MTT solution (BIO BASIC CANADA INC) was prepared [5 mg/mL in phosphate buffered saline (PBS)], added to each well and incubated for 4 h, then after removing the media, 200 μL of DMSO was added to each well to solubilize the formazan crystals and the optical density of the formazan product was measured at 560 nm using microplate reader (mindray, MR-96A). The results were calculated as the mean of the three independent experiments. […]
(§4) Determination of sample cytotoxicity on cells (MTT protocol) […]
(§5) well) and incubated at 37°C for 24 hours to develop a complete monolayer sheet.
(§6) 2- Growth medium was decanted from 96 well micro titer plates after confluent sheet of cells were formed, cell monolayer was washed twice with wash media.
(§7) 3- two-fold dilutions of tested sample was made in RPMI medium with 2% serum […]
(§8) 4- 0.1 ml of each dilution was tested in different wells leaving 3 wells as control, receiving only maintenance medium.
(§9) 5- Plate was incubated at 37°C and examined. Cells were checked for any physical signs of toxicity, e.g. partial or complete loss of the monolayer, rounding, shrinkage, […]
(§10) 6- MTT solution was prepared (5mg/ml in PBS) (BIO BASIC CANADA INC).
(§11) 8- 20ul MTT solution were added to each well. Place on a shaking table, 150rpm for 5 minutes, to thoroughly mix the MTT into the media.
(§12) 10) Dump off the media. (dry plate on paper towels to remove residue if necessary. […] 9 ش - ايلعلا هبضهلا - مطقملا / ىسيئرلا لمعملا […]

[3] = MTT cell viability assay on normal Vero cells (selectivity); assay type: cell-based; settings: African green monkey, Vero cells (normal kidney cells)
Procedure: (§13) MCF-7 cells (Human breast adenocarcinoma), HepG2 (human hepatocellular carcinoma), A549 (human lung adenocarcinoma), Caco-2 (colon carcinoma), PANC-1 (human pancreatic cancer), and Vero cells (derived from normal kidney cells) were supplied by (Holding Company for Biological Products and Vaccines VACSERA; Giza, Egypt).
as §2, §3, §4, §5, §6, §7, §8, §9, §10, §11
(§14) 10) Dump off the media. (dry plate on paper towels to remove residue if necessary. […]

[4] = tested on: Vero normal cell line; experiment: as above; assay type: cell-based
Procedure: as §13, §2, §3, §4, §5, §6, §7, §8, §9, §10, §11, §14

[5] = tested on: PANC-1 cells; experiment: MTT cell viability assay, PANC-1; assay type: cell-based, human
Procedure: as §1, §2, §3, §4, §5, §6, §7, §8, §9, §10, §11, §12

[6] = tested on: Caco-2 cancer cell line; experiment: MTT cell viability assay, Caco-2; assay type: cell-based
Procedure: as §1, §2, §3, §4, §5, §6, §7, §8, §9, §10, §11, §12

[7] = tested on: HepG2 cells; experiment: MTT cell viability assay, HepG2; assay type: cell-based, human; settings: Homo sapiens, HepG2; MTT, 48 h, average of triplicates; read-out: IC50 (μM) ± SD HepG2
Procedure: as §1, §2, §3, §4, §5, §6, §7, §8, §9, §10, §11, §12

IC50 ([2]; Homo sapiens, A549, MTT, 48 h, average of triplicates, read-out: IC50 (μM) ± SD A549): 1740 µM
IC50 ([2]; Homo sapiens, A549, MTT report T-4-019-5, Conc. ug/ml, read-out: IC50): 314 µg/mL
IC50 ([5]; Homo sapiens, PANC-1, Panc1, MTT report T-4-019-5, Conc. ug/ml, read-out: IC50): 195 µg/mL (≈ 1010 µM)
IC50 ([6]; Homo sapiens, Caco-2, Caco2, MTT report T-4-019-5, Conc. ug/ml, read-out: IC50): 96.4 µg/mL
IC50 ([6]; Homo sapiens, Caco-2, MTT, 48 h, average of triplicates, parent compounds and doxorubicin (Table 2), read-out: IC50 (μM) ± SD Caco-2): 410 µM
IC50 [7]: 810 ± 2170 µM
SMILES: COc1cc(/C=C/C(=O)O)ccc1O [Compound 2, Ferulic acid]
Apoptosis Total [1]: 13.22
Early Apoptosis [1]: 5.17
Late Apoptosis [1]: 6.48
Necrosis [1]: 1.57
Toxicity % ([2]; A549, 15.625 ug/ml): 0.8674%
Toxicity % ([2]; A549, 31.25 ug/ml): 1.115%
Toxicity % ([2]; A549, 62.5 ug/ml): 0.7435%
Toxicity % ([2]; A549, 125 ug/ml): 4.089%
Toxicity % ([2]; A549, 250 ug/ml): 59.11%
Toxicity % ([2]; A549, 500 ug/ml): 75.96%
viability at 15.625 µg/mL ([2]; Homo sapiens, A549, 15.625 ug/ml): 99.1%
viability at 31.25 µg/mL ([2]; Homo sapiens, A549, 31.25 ug/ml): 98.9%
viability at 62.5 µg/mL ([2]; Homo sapiens, A549, 62.5 ug/ml): 99.3%
viability at 125 µg/mL ([2]; Homo sapiens, A549, 125 ug/ml): 95.9%
viability at 250 µg/mL ([2]; Homo sapiens, A549, 250 ug/ml): 40.9%
viability at 500 µg/mL ([2]; Homo sapiens, A549, 500 ug/ml): 24%
viability at 48 h, 15.625 ug/ml ([3]; 15.625 ug/ml): 100%
viability at 48 h, 31.25 ug/ml ([3]; 31.25 ug/ml): 99.6%
viability at 48 h, 62.5 ug/ml ([3]; 62.5 ug/ml): 95.5%
viability at 48 h, 125 ug/ml ([3]; 125 ug/ml): 70.2%
viability at 48 h, 250 ug/ml ([3]; 250 ug/ml): 33.2%
viability at 48 h, 500 ug/ml ([3]; 500 ug/ml): 17.5%
Toxicity % ([4]; 15.625 ug/ml): 0%
Toxicity % ([4]; 31.25 ug/ml): 0.365%
Toxicity % ([4]; 62.5 ug/ml): 4.501%
Toxicity % ([4]; 125 ug/ml): 29.81%
Toxicity % ([4]; 250 ug/ml): 66.79%
Toxicity % ([4]; 500 ug/ml): 82.48%
IC50 ([4]; Chlorocebus sabaeus, MTT report T-4-019-5, Conc. ug/ml): 196 µg/mL (≈ 1010 µM)
viability at 15.625 µg/mL ([5]; Homo sapiens, PANC-1, Panc1, 15.625 ug/ml): 100%
viability at 31.25 µg/mL ([5]; Homo sapiens, PANC-1, Panc1, 31.25 ug/ml): 99.7%
viability at 62.5 µg/mL ([5]; Homo sapiens, PANC-1, Panc1, 62.5 ug/ml): 100%
viability at 125 µg/mL ([5]; Homo sapiens, PANC-1, Panc1, 125 ug/ml): 86.5%
viability at 250 µg/mL ([5]; Homo sapiens, PANC-1, Panc1, 250 ug/ml): 24.9%
viability at 500 µg/mL ([5]; Homo sapiens, PANC-1, Panc1, 500 ug/ml): 28.5%
Toxicity % ([5]; Panc1, 15.625 ug/ml): 0%
Toxicity % ([5]; Panc1, 31.25 ug/ml): 0.2717%
Toxicity % ([5]; Panc1, 62.5 ug/ml): 0%
Toxicity % ([5]; Panc1, 125 ug/ml): 13.5%
Toxicity % ([5]; Panc1, 250 ug/ml): 75.09%
Toxicity % ([5]; Panc1, 500 ug/ml): 71.47%
Toxicity % ([6]; Caco2, 15.625 ug/ml): 0.2882%
Toxicity % ([6]; Caco2, 31.25 ug/ml): 9.414%
Toxicity % ([6]; Caco2, 62.5 ug/ml): 22.57%
Toxicity % ([6]; Caco2, 125 ug/ml): 70.61%
Toxicity % ([6]; Caco2, 250 ug/ml): 88.18%
Toxicity % ([6]; Caco2, 500 ug/ml): 84.34%
viability at 15.625 µg/mL ([6]; Homo sapiens, Caco-2, Caco2, 15.625 ug/ml): 99.7%
viability at 31.25 µg/mL ([6]; Homo sapiens, Caco-2, Caco2, 31.25 ug/ml): 90.6%
viability at 62.5 µg/mL ([6]; Homo sapiens, Caco-2, Caco2, 62.5 ug/ml): 77.4%
viability at 125 µg/mL ([6]; Homo sapiens, Caco-2, Caco2, 125 ug/ml): 29.4%
viability at 250 µg/mL ([6]; Homo sapiens, Caco-2, Caco2, 250 ug/ml): 11.8%
viability at 500 µg/mL ([6]; Homo sapiens, Caco-2, Caco2, 500 ug/ml): 15.7%
